Measurements from ChEMBL document CHEMBL4811283, “New camptothecin derivatives for generalized oncological chemotherapy: Synthesis, stereochemistry and biology” (Bioorg Med Chem Lett, 2021).

How the values were obtained:
[1] = test system: HT-29; assay: Cytotoxicity against human HT-29 cells assessed as inhibition of cell growth measured after 72 hrs; assay type: functional, cell-based; conditions: HT-29, 72 h
[2] = test system: A549; assay: Cytotoxicity against human A549 cells assessed as inhibition of cell growth measured after 72 hrs; assay type: functional, cell-based; conditions: A549, 72 h
[3] = test system: CCD-841CoN; assay: Cytotoxicity against human CCD-841CoN cells assessed as inhibition of cell growth measured after 72 hrs; assay type: cell-based
[4] = test system: MCF7; assay: Cytotoxicity against human MCF7 cells assessed as inhibition of cell growth measured after 72 hrs; assay type: functional, cell-based; conditions: MCF7, 72 h
[5] = test system: HL-60; assay: Cytotoxicity against human HL-60 cells assessed as inhibition of cell growth measured after 72 hrs; assay type: functional, cell-based; conditions: HL-60, 72 h

| Compound | IC50 [1] [µM] | IC50 [2] [µM] | IC50 [3] [µM] | IC50 [4] [µM] | IC50 [5] [µM] |
| --- | --- | --- | --- | --- | --- |
| C=c1c2c(CC)c3cc(O)ccc3nc2c2cc3c(c(=O)n12)COC(=O)[C@]3(O)CC | 0.15 | 1.94 | 92.2 |  |  |
| CCc1c2c(nc3ccc(O)cc13)-c1cc3c(c(=O)n1[C@H]2CN1CCCC1)COC(=O)[C@]3(O)CC | 0.598 | 0.204 | 24.4 | 0.81 | 0.011 |
| CCc1c2c(nc3ccc(O)c(CN4CCC4)c13)-c1cc3c(c(=O)n1[C@@H]2CO)COC(=O)[C@]3(O)CC | 2.5 | 1.17 | > 1000 | 6.7 | 0.113 |
| CCc1c2c(nc3ccc(O)cc13)-c1cc3c(c(=O)n1[C@H]2CO)COC(=O)[C@]3(O)CC | 9.48 | 4.27 | 382 | 15.9 | 0.722 |
| CCc1c2c(nc3ccc(O)c(CN4CCC4)c13)-c1cc3c(c(=O)n1[C@H]2CO)COC(=O)[C@]3(O)CC | 6.98 | 5.22 | > 1000 | 11.1 | 0.334 |
| CCc1c2c(nc3ccc(O)c(N(C)CCO)c13)-c1cc3c(c(=O)n1C2)COC(=O)[C@]3(O)CC | 0.15 | 0.403 | 36.1 | 1.21 | 0.009 |
| CCc1c2c(nc3ccc(O)c(CO)c13)-c1cc3c(c(=O)n1C2)COC(=O)[C@]3(O)CC | 0.68 | 11 | > 1000 |  |  |
| CCc1c2c(nc3ccc(O)cc13)-c1cc3c(c(=O)n1[C@@H]2CO)COC(=O)[C@]3(O)CC | 14.8 | 6.54 | 62 | 14.9 | 1.89 |
| CCc1c2c(nc3ccc(O)cc13)-c1cc3c(c(=O)n1[C@@H]2CN1CCCC1)COC(=O)[C@]3(O)CC | 0.493 | 0.272 | 21.8 | 0.906 | 0.007 |
| CCc1c2c(nc3ccc(O)cc13)-c1cc3c(c(=O)n1C2)COC(=O)[C@]3(O)CC [7-ETHYL-10-HYDROXYCAMPTOTHECIN] | 0.02 | 0.028 | 4.98 | 0.66 | 0.002 |
| CCc1c2c(nc3ccc(OC(=O)N4CCC(N5CCCCC5)CC4)cc13)-c1cc3c(c(=O)n1C2)COC(=O)[C@]3(O)CC [IRINOTECAN] | 6.85 | 26.7 | 90.2 | 14.1 | 4.24 |
